Experimental data reported in PMC9705858, “Anti-Endotoxin 9-Meric Peptide with Therapeutic Potential for the Treatment of Endotoxemia” (Journal of Microbiology and Biotechnology, 2020).
≈ marks a conversion by molar mass, not a printed value. Where two headings read alike, the source gives them in different places. Non-standard residues stand in square brackets, D forms with d. Residues, ends and D or L forms follow the SMILES beside them.

Assays:
[1] = tested on: Acinetobacter baumannii (KCCM 40203); type: cell-based
Source text: (§1) The gram-negative bacterial strains Escherichia coli (KCTC 1682) and Acinetobacter baumannii (KCCM 40203) were purchased from the Korean Collection for Type Cultures (Korea) and the Korean Culture Center of Microorganisms (Korea), respectively. The MDR gram-negative strains Escherichia coli CCARM 1229, Escherichia coli CCARM 1238, Acinetobacter baumannii CCARM 12010, and Acinetobacter baumannii CCARM 12220 were obtained from the Culture Collection of Antibiotic-Resistant Microbes at Seoul Women’s University (South Korea).
(§2) The antibacterial properties of all peptides were determined by measuring the Minimum Inhibitory Concentration (MIC) as described previously. […] Two-fold serial dilutions of respective peptides were inoculated in 96-well plates in Mueller-Hinton medium, followed by the addition of bacterial suspensions (2 × 10^5 CFU/ml) at the log growth phase. The plates were incubated at 37°C for 16 h, and absorbance was read at 600 nm using a SpectraMAX microplate reader (Molecular Devices, USA).

[2] = tested on: Escherichia coli (KCTC 1682); type: cell-based
Source text: as §1, §2

[3] = tested on: MDR Acinetobacter baumannii CCARM 12010; type: cell-based; conditions: MDRAB 12010; 99% growth inhibition; 2 × 10^5 CFU/ml, 37°C, 16 h, A600
Source text: as §1, §2

[4] = tested on: MDR Acinetobacter baumannii CCARM 12220; type: cell-based; conditions: MDRAB 12220; 99% growth inhibition; 2 × 10^5 CFU/ml, 37°C, 16 h, A600
Source text: as §1, §2

[5] = tested on: MDR Escherichia coli CCARM 1229; type: cell-based; conditions: MDREC 1229; 99% growth inhibition; 2 × 10^5 CFU/ml, 37°C, 16 h, A600
Source text: as §1, §2

[6] = tested on: MDR Escherichia coli CCARM 1238; type: cell-based; conditions: MDREC 1238; 99% growth inhibition; 2 × 10^5 CFU/ml, 37°C, 16 h, A600
Source text: as §1, §2

[7] = tested on: sheep red blood cells; experiment: Hemolysis of sheep red blood cells; type: cell-based
Description: (§3) The capacity of peptides in the lysis of erythrocytes was analyzed using sheep red blood cells (RBCs) as described previously. Cytotoxicity was further assessed in mouse macrophage RAW264.7 cells, which were cultured in Dulbecco’s modified Eagle medium (Thermo Fischer Scientific Inc., USA) enriched with fetal bovine serum (10%) and antibiotics (penicillin/streptomycin, 100 IU/ 100 mg/L) at 37°C in a CO2 incubator. The cytotoxic effect of Pro9-3 series peptides against RAW264.7 cells was then determined using WST-8 Cell Proliferation Assay Kit (Biomax Co. Ltd., Korea). The analysis was carried out according to our previously reported method.

[8] = tested on: RAW264.7 cells; experiment: Cytotoxicity, WST-8 cell proliferation assay; type: cell-based, mouse; conditions: 24 h, mean of three experiments
Description: as §3
Fig. 1 Cytotoxicities of peptides. (A) Dose-dependent hemolytic activities in sheep red blood cell (sRBC) caused by peptides. (B) Dose-response cytotoxicities of the Pro9-3 and its analogs against RAW264.7 cells for 24 h. Melittin was used as a positive control. The values are expressed as the mean ± SEM of three independent experiments: *p < 0.05; **p < 0.01; ***p < 0.001; ns, not significant.

[9] = tested on: gram-negative bacterial strains and MDR bacterial strains; experiment: Geometric mean of MICs over all tested bacterial strains and relative selective index; type: cell-based, Escherichia coli, Acinetobacter baumannii; conditions: larger values indicate greater cell selectivity
Description: The geometric means (GM) of MICs were assessed to evaluate the antibacterial activities of Pro9-3 series against tested bacterial strains.

[10] = Limulus amebocyte lysate (LAL) assay, LPS neutralization; type: biochemical, Escherichia coli; conditions: 50 μM peptide, 2 ng/ml LPS, 15 min at 37°C
Description: To check the endotoxin clearance properties of peptides, LAL assay was performed according to the protocol provided in the kit (Pierce LAL Chromogenic Endotoxin Quantitation Kit, Thermo Fisher Scientific). Escalating concentrations of peptides (up to 50 μM) were added with 2 ng/ml LPS (E. coli O111:B4, Sigma-Aldrich, USA) for 15 min at 37°C. To this content, an equal volume of LAL reagent was added and incubated for 15 min and then chromogenic substrate was added. The contents were incubated for another 10 min and 25% acetic acid was used to stop the reaction. The end color (yellow) formed due to […] of substrate was read at 405 nm. LL-37 was used as a control.

[11] = A. baumannii KCCM 40203, 99% growth inhibition, 2 × 10^5 CFU/ml, 37°C, 16 h, A600
[12] = E. coli KCTC 1682, 99% growth inhibition, 2 × 10^5 CFU/ml, 37°C, 16 h, A600

| Molecule | Minimal inhibitory concentration (MIC) ([1]; KCCM 40203, 16 h) | Minimal inhibitory concentration (MIC) ([2]; KCTC 1682, 16 h) | Minimal inhibitory concentration (MIC) [3] | Minimal inhibitory concentration (MIC) [4] | Minimal inhibitory concentration (MIC) [5] | Minimal inhibitory concentration (MIC) [6] | HC10 (peptide concentration which induces 10% hemolysis) [7] | Survival of RAW264.7 macrophage cells ([8]; 100 μM peptide) | Minimal inhibitory concentration (MIC) [1, 11] | Relative selective index (HC10/GM of the MIC) [9] | Hemolytic activity in sRBC (in words) ([7]; escalated dose of peptides, Fig. 1A) | Minimal inhibitory concentration (MIC) [2, 12] | Survival of RAW264.7 macrophage cells ([8]; 50 μM peptide) | LPS neutralization (LAL assay) [10] |
| --- | --- | --- | --- | --- | --- | --- | --- | --- | --- | --- | --- | --- | --- | --- |
| CC[C@H](C)[C@H](NC(=O)[C@H](C)NC(=O)[C@H](CC(C)C)NC(=O)[C@H](Cc1c[nH]c2ccccc12)NC(=O)[C@H](CC(C)C)NC(=O)[C@@H](N)CCCNC(=N)N)C(=O)N[C@@H](Cc1c[nH]c2ccccc12)C(=O)N[C@@H](CCCNC(=N)N)C(=O)N[C@@H](CCCNC(=N)N)C(N)=O [Pro9-3] (H-RLWLAIWRR-NH2) | 16 µM (≈ 20.3 µg/mL) | 16 µM (≈ 20.3 µg/mL) | 16 µM (≈ 20.3 µg/mL) | 16 µM (≈ 20.3 µg/mL) | 16 µM (≈ 20.3 µg/mL) | 32 µM (≈ 40.6 µg/mL) | 200 µM | 100% |  |  |  |  |  |  |
| CC[C@H](C)[C@H](NC(=O)CN)C(=O)NCC(=O)N[C@@H](C)C(=O)N[C@H](C(=O)N[C@@H](CC(C)C)C(=O)N[C@@H](CCCCN)C(=O)N[C@H](C(=O)N[C@@H](CC(C)C)C(=O)N[C@H](C(=O)N[C@H](C(=O)NCC(=O)N[C@@H](CC(C)C)C(=O)N1CCC[C@H]1C(=O)N[C@@H](C)C(=O)N[C@@H](CC(C)C)C(=O)N[C@H](C(=O)N[C@@H](CO)C(=O)N[C@@H](Cc1c[nH]c2ccccc12)C(=O)N[C@H](C(=O)N[C@@H](CCCCN)C(=O)N[C@@H](CCCNC(=N)N)C(=O)N[C@@H](CCCCN)C(=O)N[C@@H](CCCNC(=N)N)C(=O)N[C@@H](CCC(N)=O)C(=O)N[C@@H](CCC(N)=O)C(N)=O)[C@@H](C)CC)[C@@H](C)CC)[C@@H](C)O)[C@@H](C)O)C(C)C)C(C)C [Melittin, reference compound] |  |  | 8 µM (≈ 22.8 µg/mL) | 8 µM (≈ 22.8 µg/mL) | 16 µM (≈ 45.5 µg/mL) | 32 µM (≈ 91.1 µg/mL) |  |  | 8 µM (≈ 22.8 µg/mL) | 0.06 | severe cytotoxicity even at low concentration |  |  |  |
| CC[C@@H](C)[C@@H](NC(=O)[C@@H](C)NC(=O)[C@@H](CC(C)C)NC(=O)[C@@H](Cc1c[nH]c2ccccc12)NC(=O)[C@@H](CC(C)C)NC(=O)[C@H](N)CCCNC(=N)N)C(=O)N[C@H](Cc1c[nH]c2ccccc12)C(=O)N[C@H](CCCNC(=N)N)C(=O)N[C@H](CCCNC(=N)N)C(N)=O [Pro9-3D] (H-[dR][dL][dW][dL][dA][dI][dW][dR][dR]-NH2) | 4 µM (≈ 5.07 µg/mL) |  | 8 µM (≈ 10.1 µg/mL) | 8 µM (≈ 10.1 µg/mL) | 8 µM (≈ 10.1 µg/mL) | 4 µM (≈ 5.07 µg/mL) | 200 µM |  |  |  |  | 8 µM (≈ 10.1 µg/mL) | 40% |  |
| CC[C@H](C)[C@H](NC(=O)[C@H](C)NC(=O)[C@H](CC(C)C)NC(=O)[C@H](Cc1c[nH]c2ccccc12)NC(=O)[C@H](CC(C)C)NC(=O)[C@@H](N)CCCCN)C(=O)N[C@@H](Cc1c[nH]c2ccccc12)C(=O)N[C@@H](CCCCN)C(=O)N[C@@H](CCCCN)C(N)=O [Pro9-3-K] (H-KLWLAIWKK-NH2) |  |  | 64 µM (≈ 75.8 µg/mL) | 64 µM (≈ 75.8 µg/mL) | 64 µM (≈ 75.8 µg/mL) | 64 µM (≈ 75.8 µg/mL) |  | 100% | 64 µM (≈ 75.8 µg/mL) |  |  | 64 µM (≈ 75.8 µg/mL) |  |  |
| CC[C@@H](C)[C@@H](NC(=O)[C@@H](C)NC(=O)[C@@H](CC(C)C)NC(=O)[C@@H](Cc1c[nH]c2ccccc12)NC(=O)[C@@H](CC(C)C)NC(=O)[C@H](N)CCCCN)C(=O)N[C@H](Cc1c[nH]c2ccccc12)C(=O)N[C@H](CCCCN)C(=O)N[C@H](CCCCN)C(N)=O [Pro9-3D-K] (H-[dK][dL][dW][dL][dA][dI][dW][dK][dK]-NH2) |  |  | 32 µM (≈ 37.9 µg/mL) | 32 µM (≈ 37.9 µg/mL) | 32 µM (≈ 37.9 µg/mL) | 16 µM (≈ 19 µg/mL) |  |  | 32 µM (≈ 37.9 µg/mL) |  |  | 16 µM (≈ 19 µg/mL) | 71% |  |
| LL-37 |  |  |  |  |  |  |  |  |  |  |  |  |  | 91% |
